Structures can show the parent of a compound that is named as a salt.
What was measured:
[1] = test system: 17CAG and 41CAG RNA (httmRNA); experiment: Ligand observed NMR binding assay for CAG repeat RNA; settings: 3 μM RNA, 200 μM compound, 288 K
Protocol: Following the above procedure, various tool and test compounds were assayed for binding. In a first series of experiments, compounds were tested for binding to 17CAG or 41CAG (sample was 3 μM in RNA). […] However, several of the compounds did show significant changes in their signals in the presence of the two RNA target species.
Purpose: Test direct binding of compounds for httmRNA (construct with 41 CAG repeats 474 nt) and others as described below. Ligand observed NMR assay to test direct binding of fragments to RNA target (e.g. construct with 41 CAG repeats 474 nt). Single compound hits were identified for further characterization by orthogonal assay (e.g. surface plasmon resonance, SPR). Ligand observed assay was used for primary screen and deconvolution into single fragment hits. Established experiments were eventually used for group epitope mapping.
This assay tests for direct binding of compounds to httmRNA and may be adapted for other repeat RNAs. Compounds are tested in pools (i.e. pool size of 12 fragments in each sample in the primary screen and smaller pool sizes during deconvolution and eventually single compound measurements).
Sample buffer: 10 mM Tris-HCl, pH 8.0, 0.78 g [MW: 157.56 g/mol]; 75 mM KCl, 2.79 g [MW: 74.55 g/mol]; 3 mM MgCl2, 0.14 g [MW: 95.21 g/mol]; fill up to 500 mL with Millipore H2O.
Dried RNA pellet is solubilized in sample buffer 10 mM Tris-HCl pH 8.0, 75 mM KCl, 3 mM MgCl2. RNA aliquot at 13.9 μM (stock concentration) is denatured at 95° C. for 3 min and snap-cooled on ice for 3 min, and refolded at 37° C. for 30 min.
Final concentrations in the sample: 200 μM each fragment and 3 μM RNA target molecule.
Sample is placed into magnet and temperature adjusted to 288 K. Spectrometer frequency at 600 MHz is matched and tuned. Magnetic field is shimmed to homogenize magnetic field around the sample.
Sequence of experiments includes a Proton 1D experiment with a Watergate sequence for water suppression, a WaterLOGSY (WLOGSY) and a 1D Saturation transfer difference (STD) experiment to test for direct binding of the compounds to the RNA.
Details for 1D Watergate experiment: For each 1D WATERGATE spectrum a total of 8192 complex points in f1 (^1H) with 128 scans were acquired (experiment time 4 min.). The spectral width was set to 16.66 ppm.
Details WLOGSY experiment: For the WLOGSY-spectrum, a total of 1024 complex points in f1 (^1H) with 256 scans were acquired (experiment time 25 min.). The carrier frequency for ^1H was set at the water resonance (˜4.7 ppm). The spectral width was set to 16.66 ppm in the direct dimension (^1H).
Details STD experiment: For the STD-spectrum, a total of 1024 complex points in f1 (^1H) with 1024 scans were acquired (experiment time 65 min.). The carrier frequency for ^1H was set at the water resonance (˜4.7 ppm). The spectral width was set to 16.66 ppm in the direct dimension (^1H). For the on-resonance experiments saturation is set to 2.0 sec at a saturation frequency of −2500 Hz. For the off-resonance experiment saturation frequency is set at 10200 Hz.
Python scripts were used to process all recorded spectra in the assay setup, screening and deconvolution process. Spectra were analyzed for direct binding signals of the compounds. Identified single compound hits were reported.

41CAG RNA (476 nt) = experiment: NMR competition experiments (WaterLOGSY); type: binding; settings: 100 μM compound, 2.5 μM RNA
Protocol: Competition experiments were also performed. Test Sample: 2.5 μM 41CAG RNA (476 nt) was combined with the following: 100 μM HP-AC008002-E01 (A); +/−200-400 μM HP-AC008001-E02 (B); and +/−200-400 μM HP-AT005003-C03 (C). ^1H 1D Watergate & WaterLOGSY spectra recorded of HP-AC008002-E01 are used as a reference.
In a further experiment, as Test Sample 2.5 μM 41CAG RNA (476 nt) was used in the presence of: 100 μM HP-AC008001-E02 (B) or 100 μM HP-AT005003-C03 (C); +/−200-400 μM HP-AC008002-E01 (A). ^1H 1D Watergate and WaterLOGSY spectra recorded single cmpds were used as a reference.
In a further experiment, as Test Sample: 2.5 μM 41CAG RNA (476 nt) was used in the presence of: 100 μM HP-AC008001-E02 (B)+/−200-400 μM HP-AT005003-C03 (C). ^1H 1D Watergate & WaterLOGSY spectra recorded of single cmpd HP-AC008001-E02 were used as a reference.

[2] = test system: RNA3WJ_0.0.0_5IB_3FAM (3WJ_0.0.0_5IB_3FAM RNA construct); experiment: Thermal shift binding assay; settings: for Melt. Temp. with cmpd / Shift melt. Temp.: RNA sequence 3WJ_0.0.0_5IB_FAM; for Melt. Temp. with cmpd: melting temperature in presence of compound; for Shift melt. Temp.: with cmpd minus without cmpd
From the text: (§1) Purpose: Test binding of compounds for RNA three way junction (for example, a construct of 38 nt). Thermal shift assay based on established fluorescence quenching assay utilizing FAM as fluorescence tag and Iowa Black as quencher. Tags were attached at the 3′ and 5′ end, respectively. Stable formation of 3WJ upon compound binding would lead to quenching of the FAM fluorescence due to close proximity of the Iowa Black tag. Thermal unfolding leads to increase of fluorescence emission. Assay readout: FAM (465-510 nm) Thermal Shift.
(§2) Assay sample buffer used: 10 mM CacoK pH 7.2, 30 mM NaCl. Buffer preparation in Dnase/Rnase Free distilled water (Gibco Life Technologies).
(§3) Dilute the RNA 1:10 (final 10 μM) in Assay Buffer.
(§4) Heat up the diluted RNA up to 90° C. for 5 min (sealed Eppendorf Tube).
(§5) Cool down the RNA probe slowly to RT.
(§6) Dilute the compounds to 800 μM in DMSO (Assay: 8 μM). […]
(§7) Pipet 20 μL Sample Solution into Roche, Light Cycler480 Multiwell Plate96, white, REF 04729692001.
(§8) Measure the 96 plate with the LightCycler480 (Channel: 480/510 nm; Temperature: 41-91° C.).
(§9) Analyse measurement-data with the MeltingCurveGenotyping Mode.
(§10) Settings: Acquisition mode: continuous; Ramp rate: 0.1° C./sec; Acquisition: 6° C.
(§11) Curves are fitted with raw and normalized data.
(§12) Melting curves analysis show melting temperature (Tm) of ˜51° C. Range of RNA concentrations was tested and assay window was determined (conc. range of 0.5-1 μM yields best results). The choice of buffer also affected the Tm. RNA constructs were tested under different buffer conditions (especially in presence of salt) in the thermal shift assay. […] CacoK with 30 mM salt at 1 μM RNA conc. was used to assess compound effects on 3WJ stability. […] These conditions were used for screening test compounds.

[3] = test system: 3WJ_0.0.0_5IB_3FAM RNA construct; experiment: Fluorescence quenching binding assay (FAM / Iowa Black); settings: concentration dependent; effect at conc. >5 μM
Protocol: This assay will be used to test binding of compounds for RNA three way junction (such as a 38 nt construct). This is a fluorescence quenching assay utilizing FAM as fluorescence tag and Iowa Black as quencher. Tags are attached at the 3′ and 5′ end, respectively. Stable formation of MW upon compound binding would lead to quenching of the FAM fluorescence due to close proximity of the Iowa Black tag. Assay readout: FAM (485-520 nm) Fluorescence Intensity.
as §2, §3, §4, §5
(§13) Dilute the compounds to 800 μM in DMSO (Assay: 8 μM).
Final concentrations in the sample: 1-10 μM RNA, 8 μM compound, 1% DMSO
Pipet 25 μL Sample Solution into Greiner cat #784076, black, 384
Measure the 96 plate with the LightCycler480 (Channel: 485/520 nm).
Calibration of the expected fluorescence signal at various RNA concentrations in either CacoK or NaPO4 buffers was performed first. Experiments in buffers containing salt show distinct fluorescence quenching behavior. […]
First, two compounds (i.e. Ark000007 & Ark000008) were tested in the fluorescence quenching assay to assess concentration dependent influence on the fluorescence signal.

RNA3WJ_3.0.0_5IB_3FAM = experiment: Thermal shift binding assay; settings: RNA:ligand ratios 1:1, 1:3
From the text: as §1, §2, §3, §4, §5, §6, §7, §8, §9, §10, §11, §12

[4] = test system: RNA3WJ_1.0.0_5IB_3FAM (cis 3WJ with one unpaired nucleotide); experiment: Thermal shift binding assay; settings: RNA:ligand ratios 1:1, 1:3
From the text: as §1, §2, §3, §4, §5, §13
Final concentrations in the sample: 1 μM RNA, 8 μM compound, 1% DMSO
as §7, §8, §9, §10, §11, §12
Compounds Ark0000013 and Ark0000014 were also tested in the thermal shift assay against three RNA 3WJ constructs, A) RNA3WJ_1.0.0_5IB_3FAM (cis 3WJ with one unpaired nucleotide); B) Split3WJ.1_up_5IB+Split3WJ.1_down_3FAM (trans 3WJ as 1:1 mix); and C) Split3WJ.2_up_5IB+Split3WJ.2_down_3FAM (trans 3WJ as 1:1 mix).

[5] = 1 μM RNA, 8 μM compound, 10 mM CacoK pH 7.2, 30 mM NaCl
[6] = competitor HP-AC008002-E01 200-400 μM (up to 1:4)

| SMILES | STD signal [1] | Melt. Temp. with cmpd [2] [°C] | Shift melt. Temp. [2] | also measured |
| --- | --- | --- | --- | --- |
| [N-]=[N+]=NC[C@H]1O[C@H](O[C@@H]2[C@@H](O)[C@H](O[C@H]3O[C@H](CN)[C@@H](O)[C@H](O)[C@H]3O)[C@@H](N)C[C@H]2N)[C@H](O)[C@@H](N)[C@@H]1O [Ark000007, 6″-Azido-Kanamycin a Hydrochloride Salt] | – | 65.6 | +4.4 °C | Melting temp + cmpd [2, 5]: 65.6 °C; Temp. Shift [2, 5]: ~5 °C; fluorescence quenching effect (FAM fluorescence signal) [3]: increase of quenching effect |
| CN(CCCN)CCCNC(=O)c1ccccc1 [Ark000039] | – | 60.3 | −1.2 °C | effect in the melting curves (raw and normalized data) (RNA3WJ_3.0.0_5IB_3FAM): lack of effect; effect in the melting curves (raw and normalized data) ([2]; RNA:ligand ratios 1:1, 1:3): no significant effect; effect in the melting curves (raw and normalized data) [4]: lack of effect |
| NCCCC[C@@H](N)C(=O)Nc1ccc2c(c1)C1c3cc(NC(=O)[C@H](N)CCCCN)ccc3C2c2ccc(NC(=O)[C@H](N)CCCCN)cc21 [ARK000016, (2R,2′R,2″R)—N,N′,N″-(9,10-dihydro-9,10-[1,2]benzenoanthracene-2,7,15-triyl)tris(2,6-diaminohexanamide)] | – | 83.8 | +21.3 °C | – |
| CN(CCOCCOCCNC(=O)CCC12c3cc(NC(=O)CCCCCCCN)ccc3C(c3ccc(NC(=O)CCCCCCCN)cc31)c1ccc(NC(=O)CCCCCCCN)cc12)C(=O)[C@@H]1C[C@H](N=[N+]=[N-])CN1C(=O)COc1ccc2c(=O)oc(=O)n(C)c2c1 [ARK000025, N,N′,N″-(9-(1-((2S,4S)-4-azido-1-(2-((1-methyl-2,4-dioxo-1,4-dihydro-2H-benzo[d][1,3]oxazin-7-yl)oxy)acetyl)pyrrolidin-2-yl)-2,11-dimethyl-1,12-dioxo-5,8-dioxa-2,11-diazatetradecan-14-yl)-9,10-dihydro-9,10-[1,2]benzenoanthracene-2,7,15-triyl)tris(8-aminooctanamide)] | – | 50.4 | −10.2 °C | – |
| CN(CCOCCN(C)C(=O)[C@@H]1C[C@H](N=[N+]=[N-])CN1C(=O)c1ccc2c(=O)oc(=O)[nH]c2c1)C(=O)CCC12c3cc(NC(=O)CCCCCCCN)ccc3C(c3ccc(NC(=O)CCCCCCCN)cc31)c1ccc(NC(=O)CCCCCCCN)cc12 [ARK000034, N,N′,N″-(9-(3-((2-(2-((2S,4S)-4-azido-1-(2,4-dioxo-1,4-dihydro-2H-benzo[d][1,3]oxazine-7-carbonyl)-N-methylpyrrolidine-2-carboxamido)ethoxy)ethyl)(methyl)amino)-3-oxopropyl)-9,10-dihydro-9,10-[1,2]benzenoanthracene-2,7,15-triyl)tris(8-aminooctanamide)] | – | 60.2 | +0.3 °C | – |

Second part, led by results:

| STD signal [1] | Melt. Temp. with cmpd [2] [°C] | Shift melt. Temp. [2] | SMILES | also measured |
| --- | --- | --- | --- | --- |
| weak | – | – | NCc1ccc2ccccc2n1 [HP-AC008004-C07] | – |
| distinct | – | – | OCc1cccc(-c2cccnc2)c1 [HP-AC008002-E01] | WaterLOGSY signals in the presence of competitor (41CAG RNA (476 nt); competitor HP-AC008001-E02 or HP-AT005003-C03 200-400 μM (up to 1:4)): still observed |
| distinct | – | – | CC(O)CNCc1ccc(-c2ccccc2)o1 (stereo not shown) [HP-AT005003-C03] | WaterLOGSY signals in the presence of competitor (41CAG RNA (476 nt); [6]): still observed |
| distinct | – | – | Cc1nn(-c2ccccc2)nc1CN [HP-AC008001-E02] | WaterLOGSY signals in the presence of competitor (41CAG RNA (476 nt); [6]): still observed; WaterLOGSY signals in the presence of competitor (41CAG RNA (476 nt); competitor HP-AT005003-C03 200-400 μM (up to 1:4)): still observed |
| distinct | – | – | O=C(c1ccc(Cl)cc1)N1CCN(c2ccc([N+](=O)[O-])c3ncccc23)CC1 [CPNQ, reference compound] | – |

Source: patent US20220402883A1, “COMPOUNDS AND METHODS FOR MODULATING RNA FUNCTION” (Arrakis Therapeutics, Inc., priority 2016, published 2022)
